From patent publication US8440724B2, “Inhibiting neurotransmitter reuptake” (Mayo Foundation for Medical Education and Research, priority 2008, dated 2013)
Entries after “also recorded” stand apart in the source; their conditions may differ.

How the values were obtained:
[1] = test system: mice; assay: Locomotor activity in motility chamber, mice; assay type: in vivo, mouse; conditions: doses that exhibited positive effects in the TST, FIG. 11
[2] = test system: Male Sprague-Dawley rats; assay: Forced swim test in rats; assay type: in vivo, rat
Method in brief: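 Male Sprague-Dawley rats got a 15 min pretest swim, then a 5-minute test 24 h later. Immobility (floating, only head-keeping movements) and swimming scored as total counts per 5-min session; ANOVA with Tukey post-hoc test.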

[3] = biological target: T1, mouse NET (Mus musculus, UniProt O55192); assay: Competition binding against [3H]nisoxetine, mouse hippocampus tissue; conditions: mouse brain tissue (hippocampus), FIG. 10F vs Table 2
T1 construct: from tissue; host or cells: mouse hippocampus
T1 sequence (O55192 whole entry): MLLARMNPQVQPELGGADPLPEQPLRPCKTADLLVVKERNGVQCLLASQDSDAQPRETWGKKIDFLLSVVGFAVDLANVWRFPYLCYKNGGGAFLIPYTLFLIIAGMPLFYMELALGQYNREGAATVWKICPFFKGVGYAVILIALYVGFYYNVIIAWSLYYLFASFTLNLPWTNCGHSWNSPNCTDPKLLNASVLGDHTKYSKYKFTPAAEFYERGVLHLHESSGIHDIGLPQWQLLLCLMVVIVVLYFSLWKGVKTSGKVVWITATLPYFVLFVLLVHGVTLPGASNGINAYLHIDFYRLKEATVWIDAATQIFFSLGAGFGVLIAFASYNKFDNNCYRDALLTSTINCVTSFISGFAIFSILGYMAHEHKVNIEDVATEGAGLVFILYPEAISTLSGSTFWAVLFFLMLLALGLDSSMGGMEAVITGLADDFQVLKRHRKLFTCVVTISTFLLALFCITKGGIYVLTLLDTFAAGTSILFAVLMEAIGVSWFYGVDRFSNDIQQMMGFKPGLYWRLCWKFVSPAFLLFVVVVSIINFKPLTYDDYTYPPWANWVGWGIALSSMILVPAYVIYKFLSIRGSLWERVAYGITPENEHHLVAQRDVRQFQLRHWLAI
Experimental: (§1) FIGS. 10A-D contain graphs plotting activity levels (counts/6 minutes) for mice treated with the indicated compound at the indicated amount. […] Each group of mice included between three and seven mice. FIGS. 10F is a line graph plotting the competition binding of the indicated compound against [^3H]nisoxetine for mouse hippocampus tissue. FIGS. 10G is a line graph plotting the competition binding of the indicated compound against [^3H]citalopram for mouse cortex tissue. FIG. 10H is a bar graph plotting the duration of immobility (seconds) during a tail suspension test of mice intraperitoneally (ip) or per os (po; orally) treated with 5 mg/kg of the indicated compound. […] Each group of mice included between seven and nine mice.

[4] = biological target: T2, mouse SERT (Mus musculus, UniProt Q60857); assay: Competition binding against [3H]citalopram, mouse cortex tissue; conditions: mouse brain tissue (cortex), FIG. 10G vs Table 2
T2 construct: from tissue; host or cells: mouse cortex
T2 sequence (Q60857 whole entry): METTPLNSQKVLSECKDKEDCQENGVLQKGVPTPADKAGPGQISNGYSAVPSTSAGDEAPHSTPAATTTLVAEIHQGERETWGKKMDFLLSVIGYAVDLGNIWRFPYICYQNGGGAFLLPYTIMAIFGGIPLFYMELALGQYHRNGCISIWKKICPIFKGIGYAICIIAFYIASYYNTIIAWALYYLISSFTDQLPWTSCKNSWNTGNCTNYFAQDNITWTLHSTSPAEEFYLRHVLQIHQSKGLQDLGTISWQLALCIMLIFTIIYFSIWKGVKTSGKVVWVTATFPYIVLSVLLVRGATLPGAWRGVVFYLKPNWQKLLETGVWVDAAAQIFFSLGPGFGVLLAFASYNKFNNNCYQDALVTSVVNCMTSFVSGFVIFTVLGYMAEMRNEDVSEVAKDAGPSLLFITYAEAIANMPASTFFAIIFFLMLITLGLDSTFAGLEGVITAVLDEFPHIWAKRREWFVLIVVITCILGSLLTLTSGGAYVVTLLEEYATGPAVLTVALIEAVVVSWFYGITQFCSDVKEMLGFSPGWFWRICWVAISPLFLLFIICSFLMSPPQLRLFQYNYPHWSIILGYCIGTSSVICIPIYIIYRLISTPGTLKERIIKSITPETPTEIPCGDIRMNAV
Experimental: as §1

| Structure (SMILES) | Effect on locomotor activity [1] | Antidepressant activity in forced swim test compared with imipramine (15 mg/kg IP) ([2]; 5 mg/kg IP, FIG. 12A) | Immobility in forced swim test vs saline ([2]; 5 mg/kg IP) | Swimming in forced swim test vs saline ([2]; 5 mg/kg IP) | further results |
| --- | --- | --- | --- | --- | --- |
| CNC[C@H](c1ccc2ccccc2c1)[C@@H](F)c1ccccc1 [MCJ001-F-RS, (2S,3R)-3-fluoro-N-methyl-2-(naphthalen-2-yl)-3-phenylpropan-1-amine] | Only d-amphetamine caused a significant effect on locomotor activity | antidepressant activity that was similar to that observed in rats treated with the positive control |  |  | Immobility in forced swim test, 5 mg/kg IP vs 5 mg/kg PO of the same compound [2]: statistically (P<0.02) more swimming and less immobility; Swimming in forced swim test, 5 mg/kg IP vs 5 mg/kg PO of the same compound [2]: statistically (P<0.02) more swimming and less immobility; Climbing in forced swim test vs saline ([2]; 5 mg/kg IP): statistically (P<0.02) more swimming and climbing; Immobility in forced swim test vs saline ([2]; 5 mg/kg IP, 5 mg/kg): statistically (P<0.04) less immobility; also recorded: statistically (P<0.02) less immobility; Swimming in forced swim test vs saline ([2]; 5 mg/kg IP, 5 mg/kg): statistically (P<0.04) more swimming behavior; also recorded: statistically (P<0.02) more swimming and climbing; Immobility in forced swim test vs imipramine (15 mg/kg IP) ([2]; 5 mg/kg IP, FIG. 12A): statistically (P<0.04) less immobility than rats treated with imipramine; Climbing in forced swim test vs saline ([2]; 5 mg/kg PO): statistically (P<0.02) more swimming and climbing; Immobility in forced swim test vs saline ([2]; 5 mg/kg PO): statistically (P<0.02) less immobility; Swimming in forced swim test vs saline ([2]; 5 mg/kg PO): statistically (P<0.02) more swimming and climbing |
| CNC[C@@H](c1ccc2ccccc2c1)[C@H](F)c1ccccc1 [MCJ001-F-SR, (2R,3S)-3-fluoro-N-methyl-2-(naphthalen-2-yl)-3-phenylpropan-1-amine] |  | antidepressant activity that was similar to that observed in rats treated with the positive control | statistically (P<0.04) less immobility | statistically (P<0.04) more swimming behavior |  |
| CNC[C@H](c1ccc2ccccc2c1)[C@@H](N=[N+]=[N-])c1ccccc1 [MCJ001-N3-RS, (2S,3R)-3-azido-N-methyl-2-(naphthalen-2-yl)-3-phenylpropan-1-amine] |  | antidepressant activity that was similar to that observed in rats treated with the positive control | statistically (P<0.04) less immobility | statistically (P<0.04) more swimming behavior |  |
| CNC[C@H](c1ccc2ccccc2c1)[C@H](OC)c1ccccc1 [MCJ001-OMe-SS, (2S,3S)-3-methoxy-N-methyl-2-(naphthalen-2-yl)-3-phenylpropan-1-amine] | Only d-amphetamine caused a significant effect on locomotor activity | antidepressant activity that was similar to that observed in rats treated with the positive control | statistically (P<0.04) less immobility | statistically (P<0.04) more swimming behavior |  |
| CN(C)C[C@H](c1ccc2ccccc2c1)[C@H](N)c1ccccc1 [MCJ002-NH2-SS, (2S,3S)-N1,N1-dimethyl-2-(naphthalen-2-yl)-3-phenylpropane-1,3-diamine] |  | antidepressant activity that was similar to that observed in rats treated with the positive control | statistically (P<0.04) less immobility | statistically (P<0.04) more swimming behavior | Potency at mouse NET as compared to potency at human NET [3]: 10 fold weaker; Potency at mouse SERT as compared to human SERT [4]: about the same potency at mouse SERT |
